The values that follow come from PubChem BioAssay (NCI).

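Grown in 96-well plates, cells were treated for 48 hours with each compound at five concentrations. Insufficient inhibition: endpoint recorded as highest concentration tested. At the GI50, growth is halved. Definition used: TGI = concentration required for complete inhibition of growth.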

Experiment in all cases: NCI-60 cell line screen, 48 h
Experiment [1] concerns OVCAR-4 ovarian.
The test system of experiment [2] is SNB-19 CNS.
Experiment [3] relates to SF-268 CNS.
The subject of experiment [4] is SK-MEL-2 melanoma.
In experiment [5] the test system is A498 renal.
Experiment [6] has as its system SNB-75 CNS.
For experiment [7], the system named is DU-145 prostate.
The subject of experiment [8] is MDA-MB-231 breast.
Experiment [9] concerns LOX IMVI melanoma.
For experiment [10], the system named is KM12 colon.

In the case of `O=C1OCOC2(CCCC2)C1c1ccccc1` (stereo not given), the TGI in [1], in experiment [2], in [3], in experiment [4], in [5] and in experiment [6] was over 100 µM each time. Also, the TGI in experiment [7], in experiment [8], in experiment [9] and in experiment [10] was over 100 µM each time.

Take `CSC(SC)=C(C#N)C(=O)Nc1ccc(Cl)cc1`: the TGI is over 100 µM in experiment [1]; over 100 µM in experiment [2]; over 100 µM in [3]; over 100 µM in [4]; 90.4 µM in experiment [5]; over 100 µM in [6]. Also, the TGI was over 100 µM in experiment [7], over 100 µM in experiment [8], 62.1 µM in experiment [9] and over 100 µM in experiment [10].

Consider `O=C(c1ccccc1)c1nn(-c2cccc(Cl)c2)c2nc3nc(-c4ccccc4)cc(=O)n3nc12`, for which the GI50 in experiment [1], in [2], in experiment [3], in experiment [4], in experiment [5] and in [6] was over 25 µM each time. Besides, the GI50 in experiment [7], in experiment [8], in experiment [9] and in [10] was over 25 µM in each case. The TGI in [1], in experiment [2], in [3], in experiment [4], in experiment [5] and in experiment [6] was over 25 µM throughout. Further, the TGI in [7], in experiment [8], in experiment [9] and in experiment [10] was over 25 µM throughout.

For the molecule `C=CCCCCCCCCCOC1C=CC(O)C(CO)O1` (stereo not given), the TGI in experiment [1], in experiment [2], in [3], in experiment [4], in [5] and in experiment [6] was over 100 µM in each case. Further, the TGI in [7] is over 100 µM; in experiment [8], over 100 µM; in experiment [9] it was over 100 µM; in [10], 85.1 µM.

Regarding `C(/C=C(\Nc1ccccc1)c1ccc2ccccc2c1)=Nc1ccccc1`, the TGI was found to be 14.5 µM in [1]; 8.24 µM in [2]; 29.5 µM in [3]; 30.9 µM in [4]; 25.8 µM in experiment [5]; 8.39 µM in experiment [6]. The TGI came out at 6.29 µM in [7], 4.1 µM in [8], 5.4 µM in experiment [9] and 12.2 µM in experiment [10].

For the molecule `O=C1c2ccccc2CC12Cc1ccc3c(c1C2=O)CCCC3` (stereo not given), the TGI in experiment [1] was over 100 µM; in [2], over 100 µM; in experiment [3], over 100 µM; in [4], over 100 µM; in experiment [5], over 100 µM; in [6], 70.5 µM. For the same molecule, the TGI was over 100 µM in experiment [7], 86 µM in [8], over 100 µM in experiment [9] and over 100 µM in [10].

As for `CC(C)C1OC(=O)C(Cc2ccccc2)N(C)C(=O)C(C(C)C)OC(=O)C(Cc2ccccc2)N(C)C(=O)C(C(C)C)OC(=O)C(Cc2ccccc2)N(C)C1=O` (stereo not given), the TGI was determined as 1.18 µM in experiment [1]; 2.18 µM in experiment [2]; 3.2 µM in experiment [3]; 1.36 µM in [4]; 6.53 µM in experiment [5]; 2.99 µM in [6]. Also, the TGI in experiment [7] turned out to be 3.03 µM; in experiment [8], 2.67 µM; in [9] it was 2.1 µM; in experiment [10] it was 1.33 µM.

For `CN(CCNC(=O)c1nn(C)c2c1Cc1ccccc1-2)CCNC(=O)c1nn(C)c2c1Cc1ccccc1-2`, the TGI in experiment [1] was 53.1 µM; in [2], 31.8 µM; in [3], 29.4 µM; in [4], 28.6 µM; in experiment [5], 28.7 µM; in experiment [6], 28.4 µM. In addition, the TGI in experiment [7] was determined as 41.5 µM; in experiment [8], 38.1 µM; in [9], 34.8 µM; in experiment [10] it was 43.7 µM.

As for `C#C[C@]1(O)CC[C@H]2[C@@H]3CCC4=C/C(=N/OC(=O)c5cccc6cc7ccccc7nc56)CC[C@@H]4[C@H]3CC[C@@]21CC`, the TGI in experiment [1], in experiment [2], in [3], in experiment [4], in experiment [5] and in experiment [6] was over 100 µM each time. Moreover, the TGI in experiment [7], in [8], in experiment [9] and in experiment [10] was over 100 µM in each case.

Regarding `O=C(OC1C#CCSCC#C/C=C\1)c1ccc2c(c1)C(=O)c1ccccc1C2=O` (stereo not given), the TGI in [1] was over 100 µM; in experiment [2], 59.7 µM; in experiment [3] it was 69.1 µM; in experiment [4], over 100 µM; in experiment [5], over 100 µM; in experiment [6] it was over 100 µM. Also, the TGI in experiment [7] was over 100 µM; in [8], 82.4 µM; in [9], over 100 µM; in experiment [10], over 100 µM.

`C=CCN(C(C)=O)c1cc(OCc2ccccc2)c2c(c1)c(C)cn2S(=O)(=O)c1ccccc1`: the TGI in [1] is over 100 µM; in experiment [2], over 100 µM; in [3], over 100 µM; in experiment [4], 12.3 µM; in experiment [5], 26.3 µM; in [6] it was over 100 µM. Also, the TGI is over 100 µM in experiment [7], over 70.8 µM in experiment [8], 50.1 µM in [9] and over 100 µM in [10].
